Results published in patent US20260240851A1, “Treatment of Parkinson's Disease in a Patient Using a Glucocerebrosidase Activator” (BIAL - R&D Investments, S.A., priority 2023, published 2026).

Assays:
[1] = LTI-291-004: fMRI, FDG-PET and functional outcome measures; type: in vivo, human
Description: This study was a Phase 1B, randomized, double-blind, placebo-controlled, multiple oral dose study of Compound A in 14 subjects (aged 51 to 81 years) with GBA-PD. The objectives of this study were to investigate the safety, tolerability, and PK of multiple once-daily oral administration of Compound A and to explore the accompanying pharmacodynamic changes. Subjects received once-daily oral doses of 10 mg (n=6) or 60 mg (2×30 mg capsules) (n=6) Compound A or placebo (n=2) for 28 consecutive days. PK samples were measured once on Day 7 and Day 14 and 4 times after the last dose on Day 28. Plasma concentrations were summarized at each time point, and no PK parameters were estimated. The PD evaluations included fMRI measures; FDG-PET to determine the metabolic rate of glucose in specific regions of the brain; and functional outcome measures (MDS-UPDRS Part III and the MMSE). GluCer, GluSph, and LacCer and other sphingolipids were measured in PBMCs and plasma as biomarkers of pharmacological effect.

[2] = BIA 28-6156-106 mass balance recovery, metabolite profiling and PK of 14C-Compound A; type: in vivo, human
Description: This was a Phase 1, single-dose, mass balance recovery study of ^14C-Compound A in 1 cohort of healthy male subjects, aged 30 to 65 years. A total of 6 subjects received a single oral dose of 60 mg Compound A, containing not more than 3.7 MBq ^14C, under fasted conditions. Objectives included determining the routes and rates of elimination of ^14C-Compound A, identifying the structure of metabolites that account for more than 10% of circulating total radioactivity in plasma and total radioactive dose in urine and feces, exploring the PK of Compound A, evaluating the extent of distribution of TR into blood cells, and gathering additional safety and tolerability information for Compound A.

[3] = BIA 28-6156-110 DDI, metformin portion; type: in vivo, human; conditions: after 6 days of dosing with 60 mg, metformin portion
Description: In Cohort 2, a single oral dose 500 mg metformin was administered alone on Day 1. From Day 2 to Day 7, a single daily dose of 60 mg Compound A was administered.

[4] = LTI-291-002: safety and tolerability; type: in vivo, human
Description: This study was a phase 1, randomized, double-blind, placebo-controlled, multiple ascending dose study of Compound A in 4 cohorts of middle-aged to elderly healthy participants (aged 52 to 75 years). […] A total of 39 healthy subjects were enrolled in 4 sequential cohorts. Subjects in each cohort received once-daily oral doses of 3 mg (n=7), 10 mg (n=8), 30 mg (n=8), or 60 mg (n=8) Compound A or placebo (n=8) for 14 days. Pharmacokinetic parameters were determined for each dose at Day 1, Day 7, and Day 14. Cerebrospinal fluid samples for Compound A concentrations were measured before the first dose and 4 hours after the last dose for each dose level. GluCer, glucosyl sphingosine (GluSph), and lactosyl-ceramide (LacCer) were measured in plasma, PBMCs, and CSF as biomarkers of pharmacological effects. Pharmacodynamic measurements consisted of battery of CNS (NeuroCart®) assessments including Saccadic Eye Movements, Smooth Pursuit Eye Movements, Adaptive Tracking, Body Sway, Visual Verbal Learning Test, and pharmaco-EEG.

clinical = conditions: both, human, plasma, 60 mg; for AUC(0-t): Madopar portion, geometric mean
Description: This was a Phase 1, non-randomized, open-label, 2-cohort, cross-over, DDI study in healthy male and female subjects.
In Cohort 2, a single oral dose 100 mg/25 mg levodopa-benserazide (Madopar®) IR was administered alone on Day 1.

CCCCCO[C@H]1CC[C@H](NC(=O)c2cnn3c(C)cc(C)nc23)CC1 [Compound A, 5,7-dimethyl-N-((1S*,4S)-4-(pentyloxy)cyclohexyl)pyrazolo[1,5-a]pyrimidine-3-carboxamide]
default mode network (DMN) assessed by fMRI ([1]; 10 or 60 mg daily for 28 days, differences not statistically significant): improved the default mode network
MDS-UPDRS III and MMSE scores ([1]; Day 28 vs Day -1, all subjects): unchanged
radioactivity recovered in excreta, mean ([2]; 60 mg 14C-Compound A oral, fasted, 288-hour sampling period): approximately 93%
exposure to Compound A as share of circulating plasma total recovery ([2]; based on AUC0-inf): approximately 92%
Tmax ([2]; male, human, plasma, single oral dose of 60 mg 14C BIA-28, read-out: Median Tmax): 1.5 h
AUC(0-inf) ([2]; male, human, plasma, single oral dose of 60 mg 14C BIA-28, read-out: plasma AUC0-inf, geometric mean): 42100 ng·h/mL
AUC(0-t) ([2]; male, human, plasma, single oral dose of 60 mg 14C BIA-28, read-out: plasma AUC0-last, geometric mean): 41700 ng·h/mL
Cmax ([2]; male, human, plasma, single oral dose of 60 mg 14C BIA-28, read-out: plasma Cmax, geometric mean): 1750 ng/mL
half-life ([2]; male, human, plasma, single oral dose of 60 mg 14C BIA-28, read-out: plasma half-life, geometric mean (converted)): 21.5 h
steady state concentrations of Compound A [3]: appeared not to have been reached
Myalgia, subjects ([4]; 3 mg dose group): 14%
Somnolence, subjects ([4]; 3 mg dose group): 14%
Myalgia, subjects ([4]; 10 mg dose group): 0%
Somnolence, subjects ([4]; 10 mg dose group): 0%
Myalgia, subjects ([4]; 30 mg dose group): 13%
Somnolence, subjects ([4]; 30 mg dose group): 0%
Myalgia, subjects ([4]; 60 mg dose group): 38%
Somnolence, subjects ([4]; 60 mg dose group): 50%
creatine kinase abnormalities ([4]; 60 mg group): No clinically significant creatine kinase abnormalities
deaths, SAEs, severe AEs, discontinuations due to AEs ([4]; 3-60 mg daily for 14 days): No deaths, other SAEs, severe AEs, or discontinuations due to AEs
vital signs, laboratory safety assessments, ECG parameters ([4]; 14 days): no clinically significant safety observations
AE back pain, subjects ([4]; all Compound A groups): 13%
AE headache, subjects ([4]; all Compound A groups): 39%
AE myalgia, subjects ([4]; all Compound A groups): 16%
AE somnolence, subjects ([4]; all Compound A groups): 16%
Cmax (clinical): 2030 ng/mL
Tmax (clinical): 2 h
AUC(0-t) (clinical; AUC0-24, 60 mg Compound A alone): 24000 ng·h/mL
AUC(0-t) (clinical; AUC0-t, 60 mg Compound A alone): 22800 ng·h/mL
